The source of these data is publication PMC6264741, “Chemical Constituents and Biological Studies of the Leaves of Grevillea robusta” (Molecules, 2011).

The term IC50 denotes the concentration at which inhibition is half-maximal. Usually melting point stands for the temperature, or range, at which the solid turns liquid.

The subject of data set [1] is MCF-7 human breast tumor cell line. The experiment in a line: Cytotoxicity assay, MCF-7. The data set is classed as cell-based. Particulars: MCF7, mean ± SD (n = 3–8). The procedure:
(§1) Compounds 1−8, 11−18, 20, and 21 were subjected to cytotoxic evaluation. The clinically applied anticancer agent, actinomycin D, was used as a positive control for the cytotoxicity assays.
(§2) The cytotoxicity assay was carried out according to procedures that have been previously described in the literature.

In data set [2] the test system is NCI-H460 human lung tumor cell line. The experiment in a line: Cytotoxicity assay, NCI-H460. The data set is classed as cell-based. The note with it: mean ± SD (n = 3–8). The procedure:
as §1, §2

Data set [3] deals with SF-268 human central nervous system tumor cell line. The experiment in a line: Cytotoxicity assay, SF-268. The data set is classed as cell-based. Particulars: mean ± SD (n = 3–8). The procedure:
as §1, §2

For data set [4], the system named is MCF-7 human breast tumor cell line. On the set-up: method as in PMID 20704331. The note with it: positive control; cited from earlier work.
In data set [5] the test system is NCI-H460 human lung tumor cell line. On the set-up: method as in PMID 20704331. Particulars: positive control; cited from earlier work.
For data set [6], the system named is SF-268 human central nervous system tumor cell line. On the set-up: method as in PMID 20704331. The note with it: positive control; cited from earlier work.
Data set [7] in a line: DPPH free radical scavenging activity assay. On the set-up: DPPH inhibition activity (Inhibition %): dose or concentration left out as unconfirmed. The note with it: mean ± S.E.M (n = 3); for IC50: 0.1 mM DPPH in ethanol, 30 min, 517 nm, read-out: DPPH inhibition activity IC50. As to the method: The free radical scavenging activity of compounds 1, 4, 5, 7, 8, 11−18, and 20 was measured with DPPH^• using the method of Chiu et al.. Briefly, 0.1 mM solution of DPPH^• in ethanol was prepared, and sample (20 μL) was added. The sample was thoroughly mixed and kept in the dark for 30 min. The absorbance was measured at 517 nm on a Quant universal microplate spectrophotometer. α-Tocopherol (Sigma Chemical Co.) was used as a standard agent. A lower absorbance of the reaction mixture indicated a higher free radical scavenging activity. The sample concentration that was used to provide the IC50 data was calculated from a graph plotting inhibition percentage against sample concentration. Tests were performed in triplicate.

Where two headings read alike, the source gives them in different places. Numbered stars: 1 amine (or outer) side, 2 acyl side, 3 side chain; on linkers, the order of the positions; unused ones are H or OH. Bridge positions count the residues as written; N and C are the ends. Square brackets hold non-standard residues; d marks the D form. Peptide text beside a SMILES is read from it. I, II: the chains in the order shown. Actinocin(9to1) = Cc1c2oc3c(C)ccc(C(=O)[*:1])c3nc-2c(C(=O)[*:2])c(N)c1=O; NMeV = CN[C@H](C(=O)O)C(C)C; Sar = CNCC(=O)O

Compound `CCCCCCCCCCCCCCC[C@H]1CC(=O)C[C@@H](O)C1` (relative stereo) [Compound 2, cis-3-hydroxy-5-pentadecylcyclohexanone] registered a melting point of 62 to 64 °C. In data set [1], this compound returned an IC50 of 26.7 ± 1.9 µM. The IC50 in data set [2] is 42.6 ± 3.6 µM. For the same compound, the IC50 in data set [3] was found to be 20.5 ± 0.6 µM. Consider `Cc1c2oc3c(C)ccc(C(=O)N[C@@H]4C(=O)N[C@H](C(C)C)C(=O)N5CCC[C@H]5C(=O)N(C)CC(=O)N(C)[C@@H](C(C)C)C(=O)O[C@@H]4C)c3nc-2c(C(=O)N[C@@H]2C(=O)N[C@H](C(C)C)C(=O)N3CCC[C@H]3C(=O)N(C)CC(=O)N(C)[C@@H](C(C)C)C(=O)O[C@@H]2C)c(N)c1=O` [Actinomycin D, actinomycin D] (I: T[dV]P[Sar][NMeV] / II: T[dV]P[Sar][NMeV]; ester I:1-I:C, II:1-II:C; linker I:N-II:N via Actinocin(9to1)), for which the IC50 in data set [4] was 103 nM; in data set [5], 8 nM; in data set [6] it was 16 nM.

For `COC(=O)/C=C/C1(O)C=CC(=O)C=C1` [Compound 1, 4-hydroxy-4-(3-methoxycarbonyl)ethenylcyclohexadien-1-one], the IC50 in data set [1] turned out to be 15 ± 3 µM; in data set [2], 10.8 ± 2.3 µM; in data set [3], 5.9 ± 0.1 µM; in data set [7] it was 23 ± 0.53 µM. The compound `CCOc1ccc(O)c(C=CC(=O)OC)c1` [Compound 3, methyl 5-ethoxy-2-hydroxycinnamate] gave a melting point of 98 to 100 °C. In data set [1], this compound showed an IC50 greater than 50 µM. In data set [2], this compound yielded an IC50 greater than 50 µM. Also, the IC50 in data set [3] is greater than 50 µM. Take `COC(=O)C=Cc1cc(O)ccc1O` [Compound 4, methyl 2,5-dihydroxycinnamate]: the IC50 is greater than 50 µM in data set [1], greater than 50 µM in data set [2], greater than 50 µM in data set [3] and 0.53 ± 0.09 µM in data set [7]. Turning to `Oc1cc2cc(c1)Oc1c(O)cc(cc1O)[C@H](O)CCCCCCCCCCCCC2` [Compound 5, gravicycle], the half-inhibitory concentration (IC50) in data set [7] is 25.7 ± 0.32 µM.

Take `Oc1cc2cc(c1)Oc1c(O)cc(cc1O)CCCCCCCCCCCCCC2` [Compound 7, robustol]: in data set [7], the IC50 was 28.8 ± 0.42 µM.

Turning to `Oc1cc2cc(c1)Oc1c(O)cc(cc1O)CCCCCCCC=CCCCCC2` [Compound 8, dehydrobustol-A], in data set [7], the IC50 came out at 11.8 ± 0.88 µM. Take `COc1cc(O)cc2c1-c1c(O)cc(cc1O)CCCCCCCCCCCCCC2` [Compound 11, methylgraviphane]: the “DPPH inhibition activity (Inhibition %)” value in data set [7] is listed as “(28.21 ± 0.23) %”. In the case of `COc1cc(O)cc2c1-c1c(O)cc(cc1O)CCCCCCCC=CCCCCC2` [Compound 12, methyldehydrograviphane], in data set [7], the concentration for half-maximal inhibition (IC50) was determined as 15.7 ± 0.31 µM.

As for `Oc1cc(O)c2c(c1)CCCCCCCCCCCCCCc1cc(O)c-2c(O)c1` [Compound 13, graviphane], the 50% inhibitory concentration (IC50) in data set [7] was found to be 3.96 ± 0.55 µM. Take `Oc1cc(O)c2c(c1)CCCCC/C=C/CCCCCCCc1cc(O)c-2c(O)c1` [Compound 14, dehydrograviphane]: the IC50 in data set [7] is 2.05 ± 0.22 µM. `COc1cc(O)cc(CCCCCCCCCCCCCCc2cc(O)cc(O)c2)c1` [Compound 15, bisgravillol]: in data set [7], the IC50 came to 36.7 ± 0.43 µM.

`COc1cc(O)cc(CCCCCCC/C=C/CCCCCc2cc(O)cc(O)c2)c1` [Compound 16, dehydrobisgravillol]: the IC50 in data set [7] came out at 28.9 ± 0.67 µM. For `Oc1cc(O)cc(CCCCCCCCCCCCCCc2cc(O)cc(O)c2)c1` [Compound 17, bis-norstriatol], the IC50 in data set [7] worked out at 31.3 ± 0.34 µM.

Regarding `Oc1cc(O)cc(CCCCCC=CCCCCCCCc2cc(O)cc(O)c2)c1` [Compound 18, 5-[14'-(3'',5''-dihydroxyphenyl)-cis-tetradec-6'-en-1'-yl]benzene-1,3-diol], in data set [7], the IC50 amounted to 35.2 ± 0.48 µM.

Take `CCCCCCCCCCCCCCCc1cc(O)cc(O)c1` [Compound 20, cis-5-n-pentadecylresorcinol]: the “DPPH inhibition activity (Inhibition %)” value in data set [7] was “(21.32 ± 0.21) %”.

As for `Cc1c(C)c2c(c(C)c1O)CC[C@@](C)(CCC[C@H](C)CCC[C@H](C)CCCC(C)C)O2` [α-tocopherol, reference compound], the IC50 in data set [7] was determined as 3.1 ± 0.05 µM.
